Common to all, as to test: NCI one-dose SRB anti-proliferative screen
Assay type in all cases: cell-based

One test deals with SR. The conditions noted are these: Homo sapiens, read-out: Cell growth inhibition %. In a few lines:
(§1)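 Read-out: sulforhodamine B protein stain measured colorimetrically after exposure of the cells to test compound at 10 µM. This line formed one member of a 60-line panel spanning lung, leukaemia, melanoma, colon, renal, CNS, prostate, breast and ovarian origins.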

The test system of the next test is NCI-H226. To be noted: Homo sapiens, read-out: Cell growth inhibition %. In a few lines: as §1
The test system of the next test is MCF7. To be noted: Homo sapiens, read-out: Cell growth inhibition %. In a few lines:
as §1

For the next test, the system named is TK-10. The conditions noted are these: Homo sapiens, read-out: Cell growth inhibition %. The method in brief:
as §1

A further test concerns NCI-H522. The conditions noted are these: Homo sapiens, read-out: Cell growth inhibition %. In a few lines: as §1
A further test concerns CAKI-1. To be noted: Homo sapiens, read-out: Cell growth inhibition %. In a few lines: as §1
In a further test the test system is EKVX. To be noted: Homo sapiens, read-out: Cell growth inhibition %. In a few lines: as §1
For a further test, the system named is 786-0. The conditions noted are these: Homo sapiens, read-out: Cell growth inhibition %. In a few lines:
as §1

The next test deals with SK-MEL-5. To be noted: Homo sapiens, read-out: Cell growth inhibition %. In a few lines: as §1
A further test relates to MDA-MB-231/ATCC. The conditions noted are these: Homo sapiens, read-out: Cell growth inhibition %. In a few lines: as §1
Another test concerns SF-295. The conditions noted are these: Homo sapiens, read-out: Cell growth inhibition %. The method in brief: as §1
A further test deals with A498. To be noted: Homo sapiens, read-out: Cell growth inhibition %. The method in brief: as §1
The next test deals with MDA-MB-435. To be noted: Homo sapiens, read-out: Cell growth inhibition %. In a few lines: as §1
The next test deals with BT-549. The conditions noted are these: Homo sapiens, read-out: Cell growth inhibition %. The method in brief: as §1
The next test relates to IGROV1. To be noted: Homo sapiens, IGROV-1, read-out: Cell growth inhibition %. In a few lines: as §1
The subject of another test is U251. The conditions noted are these: Homo sapiens, U-251, read-out: Cell growth inhibition %. The method in brief: as §1
The test system of the next test is SK-OV-3. To be noted: Homo sapiens, read-out: Cell growth inhibition %. The method in brief: as §1
The next test concerns HOP-62. To be noted: Homo sapiens, read-out: Cell growth inhibition %. In a few lines:
as §1

The subject of the next test is OVCAR-8. To be noted: Homo sapiens, read-out: Cell growth inhibition %. The method in brief:
as §1

The subject of a further test is NCI-H322M. The conditions noted are these: Homo sapiens, read-out: Cell growth inhibition %. In a few lines:
as §1

In a further test the test system is NCI-H23. The conditions noted are these: Homo sapiens, read-out: Cell growth inhibition %. The method in brief: as §1
In the next test the test system is HCC-2998. To be noted: Homo sapiens, read-out: Cell growth inhibition %. The method in brief:
as §1

The test system of the next test is SNB-19. The conditions noted are these: Homo sapiens, read-out: Cell growth inhibition %. The method in brief: as §1
A further test has as its system UO-31. To be noted: Homo sapiens, read-out: Cell growth inhibition %. The method in brief: as §1
[1] abbreviates: SR (Leukemia), NCI one dose 10 µM.
[2] abbreviates: NCI-H226 (Non-Small Cell Lung Cancer), NCI one dose 10 µM.
Where [3] appears, read: MCF7 (Breast Cancer), NCI one dose 10 µM.
[4] abbreviates: TK-10 (Renal Cancer), NCI one dose 10 µM.
Where [5] appears, read: NCI-H522 (Non-Small Cell Lung Cancer), NCI one dose 10 µM.
The mark [6] stands for this setting: CAKI-1 (Renal Cancer), NCI one dose 10 µM.
The mark [7] stands for this setting: EKVX (Non-Small Cell Lung Cancer), NCI one dose 10 µM.
Setting [8] is: 786-0 (Renal Cancer), NCI one dose 10 µM.
Setting [9] is: SK-MEL-5 (Melanoma), NCI one dose 10 µM.
Where [10] appears, read: MDA-MB-231/ATCC (Breast Cancer), NCI one dose 10 µM.
Setting [11] is: SF-295 (CNS Cancer), NCI one dose 10 µM.
The mark [12] stands for this setting: A498 (Renal Cancer), NCI one dose 10 µM.
Setting [13] is: MDA-MB-435 (Melanoma), NCI one dose 10 µM.
The mark [14] stands for this setting: BT-549 (Breast Cancer), NCI one dose 10 µM.
Where [15] appears, read: IGROV1 (Ovarian Cancer), NCI one dose 10 µM.
Setting [16] is: U251 (CNS Cancer), NCI one dose 10 µM.
[17] abbreviates: SK-OV-3 (Ovarian Cancer), NCI one dose 10 µM.
[18] abbreviates: HOP-62 (Non-Small Cell Lung Cancer), NCI one dose 10 µM.
Where [19] appears, read: OVCAR-8 (Ovarian Cancer), NCI one dose 10 µM.
The mark [20] stands for this setting: NCI-H322M (Non-Small Cell Lung Cancer), NCI one dose 10 µM.
The mark [21] stands for this setting: NCI-H23 (Non-Small Cell Lung Cancer), NCI one dose 10 µM.
Setting [22] is: HCC-2998 (Colon Cancer), NCI one dose 10 µM.
Setting [23] is: SNB-19 (CNS Cancer), NCI one dose 10 µM.
Setting [24] is: UO-31 (Renal Cancer), NCI one dose 10 µM.

Read-outs that look alike come from different tables or passages of the source.

The inhibition is the share of the control response that was lost under treatment.

As to `COc1ccc(-c2nc3cc(-c4nnc(SCC(=O)Nc5ccc(C(=O)/C=C/c6cc(OC)c(OC)c(OC)c6)cc5)o4)ccc3[nH]2)cc1` [Compound 7o, 2-{5-[2-(4-Methoxyphenyl)-1 H-benzo[d]imidazol-5-yl]-1,3,4-oxadiazol-2-ylthio}-N-{4-[(E)-3-(3,4,5-trimethoxyphenyl)acryloyl]phenyl}acetamide], the inhibition at 10 µM was 15.2% in the test with SR (SR, Leukemia, NCI one dose); 2.19% in the test with NCI-H226 (NCI-H226, Non-Small Cell Lung Cancer, NCI one dose); 18.4% in the test on MCF7 (MCF7, Breast cancer, NCI one dose); 0% with TK-10 (TK-10, Renal cancer, NCI one dose); 0% in the test with NCI-H522 (NCI-H522, Non-Small Cell Lung Cancer, NCI one dose); 1.83% with CAKI-1 (CAKI-1, Renal cancer, NCI one dose). For the same molecule, the inhibition at 10 µM in the test on EKVX (EKVX, Non-Small Cell Lung Cancer, NCI one dose) is 0%; in the test with 786-0 (786-0, Renal cancer, NCI one dose), 0%; in the test with SK-MEL-5 (SK-MEL-5, Melanoma, NCI one dose), 0.99%; in the test on MDA-MB-231/ATCC (MDA-MB-231/ATCC, Breast cancer, NCI one dose), 2.18%; in the test with SF-295 (SF-295, CNS Cancer, NCI one dose), 0%; in the test with A498 (A498, Renal cancer, NCI one dose), 0%. For the same molecule, the inhibition at 10 µM with MDA-MB-435 (MDA-MB-435, Melanoma, NCI one dose) is 0%; with BT-549 (BT-549, Breast cancer, NCI one dose) it was 0%; in the test with IGROV1 (IGROV1, Ovarian Cancer, NCI one dose), 0%; in the test with U251 (U251, CNS Cancer, NCI one dose), 3.23%; in the test on SK-OV-3 (SK-OV-3, Ovarian Cancer, NCI one dose), 0%; in the test with HOP-62 (HOP-62, Non-Small Cell Lung Cancer, NCI one dose) it was 0%. In addition, the inhibition at 10 µM in the test on OVCAR-8 (OVCAR-8, Ovarian Cancer, NCI one dose) turned out to be 0%; with NCI-H322M (NCI-H322M, Non-Small Cell Lung Cancer, NCI one dose), 0%; with NCI-H23 (NCI-H23, Non-Small Cell Lung Cancer, NCI one dose) it was 0%; in the test with HCC-2998 (HCC-2998, Colon cancer, NCI one dose), 0%; with SNB-19 (SNB-19, CNS Cancer, NCI one dose), 0%; with UO-31 (UO-31, Renal cancer, NCI one dose) it was 12.2%.
Consider `COc1cc(-c2nc3cc(-c4nnc(SCC(=O)Nc5ccc(C(=O)/C=C/c6ccc(Cl)cc6)cc5)o4)ccc3[nH]2)cc(OC)c1OC` [Compound 7v, 2-{5-[2-(3,4,5-Trimethoxyphenyl)-1 H-benzo[d]imidazol-5-yl]-1,3,4-oxadiazol-2-ylthio}-N-{4-[(E)-3-(4-chlorophenyl)acryloyl]phenyl}acetamide], for which the inhibition at 10 µM was determined as 39.6% with SR (setting [1]); 8.31% in the test with NCI-H226 (setting [2]); 40.9% with MCF7 (setting [3]); 0% in the test with TK-10 (setting [4]); 7.4% with NCI-H522 (setting [5]); 2.81% in the test on CAKI-1 (setting [6]). Further, the inhibition at 10 µM in the test on EKVX (setting [7]) is 0.51%; in the test on 786-0 (setting [8]), 9.2%; with SK-MEL-5 (setting [9]) it was 8.57%; in the test with MDA-MB-231/ATCC (setting [10]), 8.4%; in the test with SF-295 (setting [11]), 2.25%; with A498 (setting [12]), 16.8%. The inhibition at 10 µM with MDA-MB-435 (setting [13]) was found to be 1.02%; in the test on BT-549 (setting [14]), 15.6%; with IGROV1 (setting [15]), 18.4%; in the test on U251 (setting [16]), 22.4%; with SK-OV-3 (setting [17]) it was 0%; with HOP-62 (setting [18]) it was 0%. Further, the inhibition at 10 µM was determined as 7.52% in the test with OVCAR-8 (setting [19]); 3.77% with NCI-H322M (setting [20]); 0% in the test with NCI-H23 (setting [21]); 0% in the test on HCC-2998 (setting [22]); 6.59% in the test with SNB-19 (setting [23]); 16% in the test with UO-31 (setting [24]).
`COc1ccc(-c2nc3cc(-c4nnc(SCC(=O)Nc5ccc(C(=O)/C=C/c6ccccc6)cc5)o4)ccc3[nH]2)cc1OC` [Compound 7p, 2-{5-[2-(3,4-Dimethoxyphenyl)-1 H-benzo[d]imidazol-5-yl]-1,3,4-oxadiazol-2-ylthio}-N-{4-[(E)-3-phenylacryloyl]phenyl}acetamide]: the inhibition at 10 µM turned out to be 16.4% with SR (setting [1]); 1.84% with NCI-H226 (setting [2]); 21.7% in the test on MCF7 (setting [3]); 0% with TK-10 (setting [4]); 1.56% in the test with NCI-H522 (setting [5]); 2.96% with CAKI-1 (setting [6]). Also, the inhibition at 10 µM in the test with EKVX (setting [7]) turned out to be 0%; in the test on 786-0 (setting [8]) it was 0.75%; with SK-MEL-5 (setting [9]), 4.49%; in the test on MDA-MB-231/ATCC (setting [10]), 8.78%; with SF-295 (setting [11]), 5.09%; in the test with A498 (setting [12]) it was 0%. The inhibition at 10 µM was 0% with MDA-MB-435 (setting [13]); 5.86% in the test on BT-549 (setting [14]); 3.63% in the test with IGROV1 (setting [15]); 6.84% in the test with U251 (setting [16]); 0% in the test on SK-OV-3 (setting [17]); 0% in the test on HOP-62 (setting [18]). Further, the inhibition at 10 µM with OVCAR-8 (setting [19]) worked out at 0%; with NCI-H322M (setting [20]) it was 0%; with NCI-H23 (setting [21]) it was 0.22%; with HCC-2998 (setting [22]), 0%; with SNB-19 (setting [23]), 0%; with UO-31 (setting [24]), 11.5%.
